In patent US11918565B1, “Treatment of post-operative pain via sciatic nerve block with sustained-release liposomal anesthetic compositions” (Pacira Pharmaceuticals, Inc., priority 2022, dated 2024):
Structures can show the parent of a compound that is named as a salt.

Columns and labels:
[1] = test system: subjects undergoing bunionectomy; assay: Safety: treatment-emergent adverse events, SAEs, AESIs, vital signs, EKG through POD14, clinical trial #1; assay type: in vivo, human
Text: Safety assessments included monitoring of AEs from the time of randomization through POD 14. Safety endpoints include incidence of treatment-emergent AEs and SAEs from the start of the nerve block procedure through POD 14.
Safety endpoints included incidence of treatment emergent adverse events (AEs) and serious adverse events (SAEs) from start of the nerve block procedure through POD14.
Adverse event verbatim terms are mapped to preferred terms and related system organ class using the Medical Dictionary for Regulatory Activities (MedDRA). Events that start prior to the start of study drug administration are identified in a by-subject listings. Incidence rates of TEAEs and the proportion of subject prematurely withdrawn from the study due to a TEAE is shown for each treatment arm. […] Incidence rates of SAEs is shown for each treatment arm.
An AE that occurred after administration of the study treatment was considered a treatment-emergent adverse event (TEAE). A continuous AE with varying grades of severity was to be recorded as 1 AE. The highest grade of severity experienced by that subject during the course of the continuous AE was to be recorded.
General guidelines are provided below: • Unrelated: A causal relationship between the study drug and the AE could be easily ruled out (e.g., based on the temporal sequence, absence of a reasonable pathophysiological mechanism, or direct evidence of actual cause). • Unlikely: A clinical event with a temporal relationship to study drug administration that made a causal relationship improbable and in which other drugs, chemicals, or underlying disease provided a plausible explanation. • Possible: A clinical event with a reasonable time sequence to administration of the study drug but that could also be explained by a concurrent disease or other drugs or chemicals. • Probable: A clinical event with a reasonable time sequence to administration of the study drug unlikely to be attributed to a concurrent disease or other drugs or chemicals and that followed a clinically reasonable response on withdrawal (dechallenge). • Definite: The pharmacological properties of the study drug(s) or of the substance class, and the course of the AE after dechallenge and, if applicable, after rechallenge, and/or specific test indicated involvement of the study drug(s) in the occurrence/worsening of the AE, and no indication of other causes existed.
Based on review of all peripheral nerve blocks, the following conditions were considered to be Adverse Events of Special Interest (AESIs) upon review of the AEs: • Falls • Persistent tingling • Persistent numbness • Persistent weakness • Hypersensitivity • Seizures • Tremors • Dizziness • Hematoma formation • Cardiovascular depression • Dyspnea • Cardiovascular arrest • Altered sensorium • Visual disturbances • Local anesthetic systemic toxicity
However, death, in and of itself, was not an AE; it was an outcome. The cause of death was the AE.

[2] = test system: subjects undergoing bunionectomy; assay: Postsurgical opioid consumption, opioid-free subjects and time to first opioid rescue, clinical trial #1; assay type: in vivo, human
Procedure: Clinical Study #1 was a Phase 3, multicenter, randomized, double-blind, active-controlled study in 180 subjects undergoing bunionectomy. Subjects received a sciatic (in the popliteal fossa) nerve block with a single dose of either […] 266 mg ([…] 133 mg (EXP133), or 0.25% bupivacaine HCl (50 mg; BUP50). The study was conducted in two parts (Part A and Part B). Part A was to be completed and analyzed before enrollment in Part B was initiated. Part A was a 3-arm cohort with 66 subjects undergoing bunionectomy to obtain information on pharmacokinetics (PK), pharmacodynamics (PD), efficacy, and safety. Subjects were randomized (1:1:1) to the EXP266, EXP133, and BUP50 treatment arms. Part B was a 2-arm cohort with 119 subjects undergoing bunionectomy to evaluate the efficacy and safety of […] compared with bupivacaine HCl. The dose of the […] arm in Part B was determined based on the interim analysis of the Part A cohort results. On the day of surgery, subjects received an ultrasound-guided sciatic (in the popliteal fossa) nerve block with one of the following treatments: • EXP266 arm: subjects randomized to this treatment arm received 20 mL (266 mg) […] mixed with 10 mL saline (Part A only; per interim analysis was not selected for Part B) • EXP133 arm: subjects randomized to this treatment arm received 10 mL (133 mg) […] mixed with 20 mL saline (Part A and B) • BUP50 arm: subjects randomized to this treatment arm received 20 mL (50 mg) 0.25% bupivacaine HCl mixed with 10 mL saline (Part A and B) Postsurgical pain for breakthrough pain. An unscheduled pain intensity assessment using the NRS (measured as “On a scale from 0 to 10, where 0 equals no pain and 10 equals the worst possible pain, how much pain are you experiencing in your operative foot right now?”) was to be completed immediately prior to administration of any breakthrough pain medication up to 96 h post-surgery. Medications were administered PRN; opioids were not to be given on a pre-determined schedule. […] All postsurgical analgesics administered, were to be recorded through hospital discharge. […]

[3] = EXP266 Part A, EXP133 and BUP50 Part A+B

CCCCN1CCCCC1C(=O)Nc1c(C)cccc1C (stereo not drawn) [BUP50, bupivacaine HCl]
subjects with a clinically significant abnormal EKG finding ([1]; EXP133 on POD2, BUP50 on POD1): 1 subject
subjects with treatment-emergent SAEs related to study drug ([1]; EXP266: hypertension and pyrexia, BUP50: atrioventricular block second degree, both discontinued): 1 subject
proportion of subjects with a treatment-related TEAE [1, 3]: 2.4%
subjects that had SAEs ([1]; EXPAREL (266 mg), bupivacaine HCl): 1 subject
AESI of atrioventricular block second degree considered possibly related to study drug ([1]; human, in vivo): 1 subject
AESI of muscular weakness considered possibly related to study drug ([1]; human, in vivo): 1 subject
TEAE constipation, subjects ([1]; human, in vivo): 31.7%
TEAE nausea, subjects ([1]; human, in vivo): 23.2%
number of subjects with ≥1 TEAE related to study drug ([1]; human, in vivo): 2 subjects
subjects who had ≥1 AESI ([1]; human, in vivo): 4 subjects
subjects with a moderate TEAE ([1]; human, in vivo): 12.2%
proportion of subjects who reported TEAEs ([1]; through POD14): 54.9%
estimate of the proportion of opioid-free subjects ([2]; 0 to 96 h post-surgery, EXP266 Part A, EXP133 and BUP50 Part A+B): 9.8%
proportion of subjects who received opioid breakthrough medication [2, 3]: 90.2%
median time to first rescue medication ([2]; post-surgery, Kaplan-Meier): 20.68 h
